Assay results as given in patent US8624027B2, “Combination therapy for treating cancer and diagnostic assays for use therein” (AbbVie Inc., priority 2005, dated 2014).

Legend:
HCT116 cells = assay: Aurora inhibitors in combination with ABT-263, cell viability (CellTiter-GLO); assay type: cell-based, human; conditions: 1 μM ABT-263, 72 hours; MLN8054 at Aurora A-selective concentrations (<5 μM)
Protocol: 24 hours post-transfection, cells were treated with ABT-263 in dose response, and cell viability was determined 72 hours after the addition of ABT-263. […] MLN8054 (FIG. 9C) or AZD1152 (FIG. 9D) were tested in combination with DMSO or 1 μM ABT-263 in HCT116 cells. Cell viability was determined 72 hours after treatment. […] EJ1 (FIG. 9F) or HCT116 (FIG. 9G) cells were transfected with a luciferase siRNA or the same set of siRNAs against Bcl-2, Bcl-XL, or Mcl-1 siRNAs as in FIG. 9E. 24 hours post-transfection, cells were treated with different amounts of AZD1152. Cell viability was determined 72 hours after exposure to AZD1152. […] Cell viability was determined 72 hours post-transfection. In all figures, cell viability was expressed as the percentage of untransfected, DMSO-treated control cells. The red viability curve represents a synergistic combination.
(§1) Generally, cells were seeded at >90% viability (as determined by trypan blue exclusion) into 96-well plates overnight, treated with compounds or siRNAs for indicated duration, and the overall cell viability was determined by measuring luminescence.

[1] = test system: tumor cell lines (D54MG, NCI-H460, A549, PC3, EJ1, HCT116, DLD1, SW620, 786-O); assay: Combination screen of VX-680, cell viability with Bliss additivism analysis; assay type: cell-based, human; conditions: VX-680 with ABT-263 in dose-response; viability 3 days after exposure
Protocol: Cell viability was determined 3 days after exposure to the combination regimens. Synergy or antagonism of drug combinations was determined using the Bliss additivism model of drug-drug interactions (See, Berenbaum, M. C., Cancer Res 35, 269-335 (1981)). The value in excess of Bliss additivism for each dose was determined for all combinations and defined as follows: >15=synergistic, 0-15=no interaction, <−15=antagonistic. These values are expressed in a heatmap using SPOTFIRE® (TIBCO®) data analysis software where synergy is indicated in red, no interaction in gray, and antagonism in blue. […] These values are not applicable for Bliss analysis and were excluded from the heatmap. Compounds tested in combination are shown at the right. The targets/mechanisms of action of each of these agents and the corresponding dose responses for the combination screen is summarized in Table A in EXAMPLE 40.
as §1
Combined response scores greater than 15 were considered synergistic. […]

O=C(O)c1ccc(Nc2ncc3c(n2)-c2ccc(Cl)cc2C(c2c(F)cccc2F)=NC3)cc1 [MLN8054]
synergy in combination with ABT-263 (cell viability) (HCT116 cells): no synergy

Cc1cc(Nc2cc(N3CCN(C)CC3)nc(Sc3ccc(NC(=O)C4CC4)cc3)n2)[nH]n1 [VX-680, cyclopropane carboxylic acid of {4-[4-(4-methyl-piperazin-1-yl)-6-(5-methyl-2H-pyrazol-3-ylamino)-pyrimidin-2-ylsulphanyl]-phenyl}-amide]
Bliss analysis of cell viability, combination with ABT-263 [1]: synergistic (>15=synergistic)
